In patent US20260347338A1, “PYRIMIDINE/PYRIDINE DERIVATIVES OR SALTS THEREOF AND PHARMACEUTICAL COMPOSITIONS COMPRISING THE SAME” (YUHAN CORPORATION, priority 2023, published 2026):
Where a name gives a salt, the structure may show the parent alone.

These compounds were tested against T1, human recombinant HPK1 (Homo sapiens, UniProt Q92918) (assay: Inhibitory activity against human recombinant HPK1 (TR-FRET)). Details: ULight-p70S6K peptide, ATP at Km, room temperature, 1 hour, 0.32 to 1000 nM compound.
T1 construct: purchased BPS Bioscience
Assay type: biochemical
Experimental: Test Example: Evaluation of Inhibitory Activity Against Human Recombinant HPK1
The inhibitory activity against human recombinant HPK1 was evaluated using the Time-Resolved Fluorescence Resonance Energy Transfer (TR-FRET) technology of Perkin-Elmer. The test compound was prepared as a 20 mM stock solution with dimethyl sulfoxide (DMSO), serially diluted in a buffer solution, and used at final compound concentrations of 0.32 to 1000 nM. The evaluation of inhibitory activity was carried out at room temperature, using recombinant human HPK1 (BPS Bioscience). Briefly, recombinant human HPK1, serially diluted each test compound, ULight-p70S6K peptide substrate (PerkinElmer), and ATP at each concentration (Km and final concentration) were added to a kinase buffer solution (50 mM HEPES pH 7.4, 10 mM MgCl2, 1 mM EGTA, 3 mM MnCl2, 2 mM DTT, and 0.01% Tween-20). The resulting mixture was added to each well of a 384-well plate (Optiplate™ 384, white, PerkinElmer). The enzyme reaction was carried out at room temperature for 1 hour. After the reaction was suspended by adding 4 μL of a stop solution (10 mM EDTA) thereto, the mixture was stirred for 1 minute and then a detection solution containing Europium-labeled anti-phosphopeptide antibody (final concentration: 2 nM, PerkinElmer) was added thereto. The signals of TR-FRET at excitation wavelength (320 nm) and emission wavelength (665 nm) were detected using a microplate reader (Envision Multilabel Reader, Perkin-Elmer). Inhibition by the test compound was measured as % inhibition in the signals, compared to the control group treated with DMSO only. The IC50 value of each compound was calculated using the GraphPad Prism program (GraphPad Software, Inc., San Diego, CA, USA). The IC50 values of test compounds for inhibitory activity against HPK1 were classified as follows: • A: IC50≤10 nM • B: 10 nM<IC50≤50 nM • C: 50 nM<IC50≤100 nM • D: IC50>100 nM

T1 sequence (Q92918 whole entry): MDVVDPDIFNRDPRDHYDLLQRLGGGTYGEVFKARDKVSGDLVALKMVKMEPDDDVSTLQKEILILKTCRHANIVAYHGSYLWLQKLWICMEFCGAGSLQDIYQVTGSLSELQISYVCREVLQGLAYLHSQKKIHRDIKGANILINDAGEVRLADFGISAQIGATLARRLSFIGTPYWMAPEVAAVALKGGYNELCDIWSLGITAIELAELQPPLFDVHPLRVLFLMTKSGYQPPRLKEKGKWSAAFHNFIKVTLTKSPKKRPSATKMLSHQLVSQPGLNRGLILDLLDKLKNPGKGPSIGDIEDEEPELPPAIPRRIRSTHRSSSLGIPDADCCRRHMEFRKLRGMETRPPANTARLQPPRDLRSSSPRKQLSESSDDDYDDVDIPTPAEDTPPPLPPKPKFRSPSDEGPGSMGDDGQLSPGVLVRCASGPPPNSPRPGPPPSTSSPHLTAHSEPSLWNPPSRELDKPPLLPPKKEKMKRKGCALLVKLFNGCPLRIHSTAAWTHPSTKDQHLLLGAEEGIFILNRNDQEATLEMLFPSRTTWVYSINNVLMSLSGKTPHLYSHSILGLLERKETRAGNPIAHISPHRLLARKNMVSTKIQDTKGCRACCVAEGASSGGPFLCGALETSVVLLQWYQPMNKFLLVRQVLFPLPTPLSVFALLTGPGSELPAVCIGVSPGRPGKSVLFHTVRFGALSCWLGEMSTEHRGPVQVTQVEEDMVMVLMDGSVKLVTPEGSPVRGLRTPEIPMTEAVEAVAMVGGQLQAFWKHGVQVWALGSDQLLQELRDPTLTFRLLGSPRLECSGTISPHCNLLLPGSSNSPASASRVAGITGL

IC50 [nM]	SMILES
≤ 10	COc1cccc(F)c1-c1nccc(Nc2cc(N3CCC(CCN(C)C)CC3)c(-c3cnn(C(F)F)c3)cn2)n1 [Example 147, N-(5-(1-(difluoromethyl)-1H-pyrazol-4-yl)-4-(4-(2-(dimethylamino)ethyl)piperidin-1-yl)pyridin-2-yl)-2-(2-fluoro-6-methoxyphenyl)pyrimidin-4-amine]
≤ 10	COCCOc1ccc(-c2cnc(Nc3ccnc(-c4c(F)cccc4OC)n3)cc2N2CCC[C@H](N)C2)cn1 [Example 230, (S)-4-(3-aminopiperidin-1-yl)-N-(2-(2-fluoro-6-methoxyphenyl)pyrimidin-4-yl)-6′-(2-methoxyethoxy)-[3,3′-bipyridin]-6-amine]
≤ 10	COc1cccc(F)c1-c1nccc(Nc2cc(N3CCC4(CCN(C)C4)CC3)c(-c3cnn(C4CCOCC4)c3)cn2)n1 [Example 117, 2-(2-fluoro-6-methoxyphenyl)-N-(4-(2-methyl-2,8-diazaspiro[4.5]decan-8-yl)-5-(1-(tetrahydro-2H-pyran-4-yl)-1H-pyrazol-4-yl)pyridin-2-yl)pyrimidin-4-amine]
≤ 10	COc1cccc(F)c1-c1nccc(Nc2cc(N3CCC[C@H](N)C3)c(-c3cccc(C(=O)N(C)C)c3)cn2)n1 [Example 280, (S)-3-(4-(3-aminopiperidin-1-yl)-6-((2-(2-fluoro-6-methoxyphenyl)pyrimidin-4-yl)amino)pyridin-3-yl)-N,N-dimethylbenzamide hydrochloride]
≤ 10	COc1cc(F)cc(F)c1-c1nc(Nc2cc(N3CCC[C@H](O)C3)c(-c3cnn(C(F)F)c3)cn2)ccc1[N+](=O)[O-] [Example 183, (3S)-1-(2-((6-(2,4-difluoro-6-methoxyphenyl)-5-nitropyridin-2-yl)amino)-5-(1-(difluoromethyl)-1H-pyrazol-4-yl)pyridin-4-yl)piperidin-3-ol]
≤ 10	COc1cccc(F)c1-c1nccc(Nc2cc(N3CCC(CCN(C)C)CC3)c(-c3cnn(CC(F)(F)F)c3)cn2)n1 [Example 148, N-(4-(4-(2-(dimethylamino)ethyl)piperidin-1-yl)-5-(1-(2,2,2-trifluoroethyl)-1H-pyrazol-4-yl)pyridin-2-yl)-2-(2-fluoro-6-methoxyphenyl)pyrimidin-4-amine]
≤ 10	COc1cccc(F)c1-c1nccc(Nc2cc(N3CCC[C@H](N)C3)c(C#Cc3cnn(C(F)F)c3)cn2)n1 [Example 164, (S)-N-(4-(3-aminopiperidin-1-yl)-5-((1-(difluoromethyl)-1H-pyrazol-4-yl)ethynyl)pyridin-2-yl)-2-(2-fluoro-6-methoxyphenyl)pyrimidin-4-amine hydrochloride]
≤ 10	COc1cc(F)cc(F)c1-c1nc(Nc2cc(N3CCC[C@H](N)C3)c(-c3cnn(C(F)F)c3)cn2)ccc1C#N [Example 310, 6-((4-((S)-3-aminopiperidin-1-yl)-5-(1-(difluoromethyl)-1H-pyrazol-4-yl)pyridin-2-yl)amino)-2-(2,4-difluoro-6-methoxyphenyl)nicotinonitrile hydrochloride]
≤ 10	COc1cccc(F)c1-c1cccc(Nc2cc(N3CCC[C@H](O)C3)c(-c3cnn(C4CCOCC4)c3)cn2)n1 [Example 35, (S)-1-(2-((6-(2-fluoro-6-methoxyphenyl)pyridin-2-yl)amino)-5-(1-(tetrahydro-2H-pyran-4-yl)-1H-pyrazol-4-yl)pyridin-4-yl)piperidin-3-ol]
10 to 50	COc1c(F)ccc(F)c1-c1nccc(Nc2cc(N3CCC[C@H](O)C3)c(-c3cnn(C4CCOCC4)c3)cn2)n1 [Example 23, (S)-1-(2-((2-(3,6-difluoro-2-methoxyphenyl)pyrimidin-4-yl)amino)-5-(1-(tetrahydro-2H-pyran-4-yl)-1H-pyrazol-4-yl)pyridin-4-yl)piperidin-3-ol]
≤ 10	COc1cc(F)cc(F)c1-c1nc(Nc2cc(N3CCC[C@H](O)C3)c(-c3cnn(C4CCOCC4)c3)cn2)ccc1[N+](=O)[O-] [Example 224, (3S)-1-(2-((6-(2,4-difluoro-6-methoxyphenyl)-5-nitropyridin-2-yl)amino)-5-(1-(tetrahydro-2H-pyran-4-yl)-1H-pyrazol-4-yl)pyridin-4-yl)piperidin-3-ol]
≤ 10	N[C@H]1CCCN(c2cc(Nc3ccnc(-c4cc5nccnc5cc4F)n3)ncc2-c2cnn(C(F)F)c2)C1 [Example 88, (S)-N-(4-(3-aminopiperidin-1-yl)-5-(1-(difluoromethyl)-1H-pyrazol-4-yl)pyridin-2-yl)-2-(7-fluoroquinoxalin-6-yl)pyrimidin-4-amine hydrochloride]
≤ 10	COc1cccc(F)c1-c1nc(Nc2cc(N3CCC[C@H](O)C3)c(-c3cnn(C(F)(F)F)c3)cn2)ccc1N [Example 178, (3S)-1-(2-((5-amino-6-(2-fluoro-6-methoxyphenyl)pyridin-2-yl)amino)-5-(1-(trifluoromethyl)-1H-pyrazol-4-yl)pyridin-4-yl)piperidin-3-ol]
≤ 10	COc1cc(F)cc(F)c1-c1nccc(Nc2cc(N3CCC[C@H](O)C3)c(C#Cc3cnn(C(F)F)c3)cn2)n1 [Example 217, (S)-1-(2-((2-(2,4-difluoro-6-methoxyphenyl)pyrimidin-4-yl)amino)-5-((1-(difluoromethyl)-1H-pyrazol-4-yl)ethynyl)pyridin-4-yl)piperidin-3-ol]
≤ 10	COc1cccc(F)c1-c1nc(Nc2cc(N3CCC[C@H](N)C3)c(C#Cc3cnn(C(F)(F)F)c3)cn2)ccc1F [Example 114, 4-((S)-3-aminopiperidin-1-yl)-N-(5-fluoro-6-(2-fluoro-6-methoxyphenyl)pyridin-2-yl)-5-((1-(trifluoromethyl)-1H-pyrazol-4-yl)ethynyl)pyridin-2-amine hydrochloride]
≤ 10	COc1cccc(F)c1-c1nc(Nc2cc(N3CCC[C@H](O)C3)c(-c3cnn(C4CCOCC4)c3)cn2)ccc1N [Example 177, (3S)-1-(2-((5-amino-6-(2-fluoro-6-methoxyphenyl)pyridin-2-yl)amino)-5-(1-(tetrahydro-2H-pyran-4-yl)-1H-pyrazol-4-yl)pyridin-4-yl)piperidin-3-ol]
≤ 10	COc1cc(F)cc(F)c1-c1nccc(Nc2cc(N3CCC[C@H](N)C3)c(C#CCCO)cn2)n1 [Example 314, (S)-4-(4-(3-aminopiperidin-1-yl)-6-((2-(2,4-difluoro-6-methoxyphenyl)pyrimidin-4-yl)amino)pyridin-3-yl)but-3-yn-1-ol]
≤ 10	COC(=O)c1cc(F)c(-c2nccc(Nc3cc(N4CCC[C@H](N)C4)c(-c4cnn(C(F)F)c4)cn3)n2)c(OC)c1 [Example 185, methyl (S)-4-(4-((4-(3-aminopiperidin-1-yl)-5-(1-(difluoromethyl)-1H-pyrazol-4-yl)pyridin-2-yl)amino)pyrimidin-2-yl)-3-fluoro-5-methoxybenzoate hydrochloride]
10 to 50	COc1cccc(F)c1-c1nccc(Nc2cc(N3CCC(N(C)C)C3)c(-c3cnn(C4CCOCC4)c3)cn2)n1 (centres unmarked) [Example 44, N-(4-(3-(dimethylamino)pyrrolidin-1-yl)-5-(1-(tetrahydro-2H-pyran-4-yl)-1H-pyrazol-4-yl)pyridin-2-yl)-2-(2-fluoro-6-methoxyphenyl)pyrimidin-4-amine]
≤ 10	COc1cccc(F)c1-c1nc(Nc2cc(N3CCC[C@H](N)C3)c(-c3cnn(C4CCOCC4)c3)cn2)ccc1N [Example 181, N^2-(4-((S)-3-aminopiperidin-1-yl)-5-(1-(tetrahydro-2H-pyran-4-yl)-1H-pyrazol-4-yl)pyridin-2-yl)-6-(2-fluoro-6-methoxyphenyl)pyridin-2,5-diamine hydrochloride]
≤ 10	COc1cccc(F)c1-c1nccc(Nc2cc(N3CCC[C@H](N)C3)c(-c3cnn(CCN(C)C)c3)cn2)n1 [Example 246, (S)-N-(4-(3-aminopiperidin-1-yl)-5-(1-(2-(dimethylamino)ethyl)-1H-pyrazol-4-yl)pyridin-2-yl)-2-(2-fluoro-6-methoxyphenyl)pyrimidin-4-amine hydrochloride]
≤ 10	COc1cccc(F)c1-c1nccc(Nc2cc(N3CCC[C@H](N)C3)c(-c3cnn(CC(C)(C)O)c3)cn2)n1 [Example 235, (S)-1-(4-(4-(3-aminopiperidin-1-yl)-6-((2-(2-fluoro-6-methoxyphenyl)pyrimidin-4-yl)amino)pyridin-3-yl)-1H-pyrazol-1-yl)-2-methylpropan-2-ol hydrochloride]
≤ 10	COc1cccc(F)c1-c1nccc(Nc2cc(N3CC[C@H](N)[C@H](F)C3)c(-c3cnn(C(F)F)c3)cn2)n1 [Example 307, N-(4-((3R,4S)-4-amino-3-fluoropiperidin-1-yl)-5-(1-(difluoromethyl)-1H-pyrazol-4-yl)pyridin-2-yl)-2-(2-fluoro-6-methoxyphenyl)pyrimidin-4-amine hydrochloride]
